One assay concerns the target T1, MLLT3 (Mus musculus, UniProt A2AM29).
T1 construct: endogenous in cells; host or cells: NIH/3T3 (ATCC CRL-1658)
T1 sequence (A2AM29 1-569): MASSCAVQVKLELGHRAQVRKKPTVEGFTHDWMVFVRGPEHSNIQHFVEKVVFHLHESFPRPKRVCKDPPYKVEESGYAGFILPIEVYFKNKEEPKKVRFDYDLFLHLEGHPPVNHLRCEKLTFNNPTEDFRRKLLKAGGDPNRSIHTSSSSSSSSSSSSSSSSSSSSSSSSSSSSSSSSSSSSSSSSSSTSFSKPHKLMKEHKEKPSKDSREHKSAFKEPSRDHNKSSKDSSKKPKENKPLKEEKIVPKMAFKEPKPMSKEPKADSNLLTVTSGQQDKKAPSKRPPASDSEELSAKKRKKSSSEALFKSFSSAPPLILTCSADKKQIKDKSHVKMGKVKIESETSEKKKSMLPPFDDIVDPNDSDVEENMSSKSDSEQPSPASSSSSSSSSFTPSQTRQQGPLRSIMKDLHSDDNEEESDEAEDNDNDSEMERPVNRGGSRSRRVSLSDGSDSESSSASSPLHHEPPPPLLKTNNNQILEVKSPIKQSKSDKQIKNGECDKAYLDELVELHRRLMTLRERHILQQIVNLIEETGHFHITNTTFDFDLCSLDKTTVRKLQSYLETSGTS
As to the kind of experiment: MLLT3 degradation assay in NIH/3T3 cells (JESS, 5 h). It counts as cell-based. Here is the method: MLLT3 degradation efficacy of compounds was tested in an automated chemiluminescent detection system (JESS, Cat #004-650). NIH/3T3 (#CRL-1658, ATCC) were seeded at a density of 0.5 million cells/well in a cell culture treated 6-well cell culture plate in 2 mL of complete medium (DMEM+10% FBS+1× Penicillin-Streptomycin) and incubated at 37° C., 5% CO2. The next day, 10 mM DMSO stocks were prepared, and cells were treated with eight concentrations of test compounds, starting from 100 nM, 5-fold dilution, at a final DMSO concentration of 0.1% and incubated for 5 h at 37° C., 5% CO2. Post incubation, cells were washed with HBSS and lysed in 70 μL of RIPA buffer supplemented with Protease inhibitors (sc-24948; Santa Cruz). Later, protein estimation was done using BCA protein assay kit (23228; Pierce). 4 gg protein lysate (4 μL of 1 μg/μL lysate) was loaded into each well of the JESS cartridge (SM-W004; Bio-techne) and the JESS run was performed using 1:200 dilution of anti-mouse MLLT3 antibody (#47577; CST) and 1:800 dilution of anti-human GAPDH antibody (2118; Cell signaling technology) with anti-rabbit secondary detection module (DM-001; Bio-Techne). Post run, data was analysed using “Compass for SW” software for chemiluminescent detection. Peak fit was done using “dropped lines” method. […]

The subject of assay [1] is MV4-11 cells. As to the kind of experiment: MV4-11 cellular proliferative assay, Assay Format B (CTG 2.0, 168 h). The assay is classed as cell-based. To be noted: Homo sapiens, Assay Method B, Table 7, read-out: MV4-11 Antiproliferation IC50. In short, it runs like this: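 Cells seeded at 600/well in IMDM + 10% FBS, incubated overnight, then exposed 168 h (7 days) at 37 °C to 10 concentrations, 3-fold dilutions from 1 uM or 100 nM top dose (0.3% DMSO final). Viability by CTG 2.0 luminescence as % of DMSO control; curves fitted by four-parameter logistic regression.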

In a further assay the test system is human AML. As to the kind of experiment: in vivo mouse model of human AML (procedure of Example 112). To be noted: oral administration, FIG. 1.
The subject of assay [2] is MV4-11 cells. As to the kind of experiment: MV4-11 cellular proliferative assay, Assay Format A (CellTiter-Glo, 120 h). Conditions: Homo sapiens, Assay format A, 120 h, read-out: IC50 (MV4-11 cellular proliferative assay). It counts as cell-based. In short, it runs like this:
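MV4-11 cells seeded at 50 cells/well and exposed for 120 h to compound (10 semi-log dilutions, top 30 μM) or DMSO. Viability by CellTiter-Glo luminescence, normalised to DMSO and reference-compound wells; AC50 from Hill fit.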

In turn, `Cc1nn(CCCCCCCC#Cc2cccc3c2CN(C2CCC(=O)NC2=O)C3=O)c2cc(C(=O)Nc3cc4[nH]c([C@H]5CCCN5C)cc4cn3)ccc12` (mixture of isomers) [Example 1, 1-(9-(2-(2,6-dioxopiperidin-3-yl)-1-oxoisoindolin-4-yl)non-8-yn-1-yl)-3-methyl-N-(2-((R)-1-methylpyrrolidin-2-yl)-1H-pyrrolo[3,2-c]pyridin-6-yl)-1H-indazole-6-carboxamide] yielded a DC50 at MLLT3 of 1.6 nM. The compound also had a maximal degradation (Dmax) at MLLT3 (NIH3T3, maximum % degradation observed) of 85%. Also, the IC50 in the assay on MV4-11 cells [1] is 6.5 nM; with MV4-11 cells [2] it was under 100 nM. Further, in the assay on human AML, the tumour growth entry was “reduction in tumour growth”.

As usually defined, the DC50 is the midpoint of the concentration-degradation curve. A higher DC50 goes with degradation only at high concentration. Broadly, the Dmax is the greatest extent of degradation seen.

For the origin of these results see patent publication US20260199484A1, “PROTAC DEGRADERS OF MLLT1 AND/OR MLLT3” (DARK BLUE THERAPEUTICS LTD, priority 2024, published 2026).
